Data: patent publication US20190175557A1, “COMPOUNDS USEFUL FOR DECREASING INTERFERON LEVEL” (priority 2016, published 2019)

How the values were obtained:
[1] = biological target: T1, CXCR4 (Homo sapiens, UniProt P61073)
[2] = biological target: T1, CXCR4; experiment: CXCR4 internalization and co-localization in pDC (microscopy); assay type: cell-based; conditions: cells incubated with CB, compared to untreated cells
Method: Cells were then incubated with anti-CXCR4 antibody (Biolegend, San Diego, Calif.) in saturation buffer PBS-BSA 0.5% for membrane staining or in permeabilizing buffer containing 1% saponin with monoclonal antibody anti-TRAIL (Biolegend, San Diego, Calif., USA). […] Nucleus was stained using DAPI (Molecular Probes, Paisley, UK). Slides were mounted with Fluoromount-G (eBioscience, CA, USA) and scanned with a Nikon Eclipse 90i Upright microscope (Nikon Instruments Europe, Badhoevedorp, The Netherlands) using a 100× Plan Apo VC piezo objective (NA 1.4) and Chroma bloc filters (ET-DAPI, ET-GFP) and were subsequently deconvoluted with a Meinel algorithm and 8 iterations and analyzed using Metamorph® (MDS Analytical Technologies, Winnersh, UK). TRAIL/DAPI/Overlay/Confocal plane: Representative 2D focal plan. Overlay with bright: Bright. […]
In other cases, cells were cultured overnight in media alone then were washed in ice-cold PBS-BSA 0.2% and stained with CXCR4 antibody (R&D Systems) for 1 hour at 4° C. […] Data are expressed as the mean percentage ±SEM mean channel fluorescence intensity (MFI) values for residual surface expression and intracellular staining. […]
7 pictures were taken from each slide for each Z section framing the nucleus. Quantification of the colocalization in the cytoplasm of purified pDC using Mander's Coefficient was obtained after analyze by JACoP pluging in ImageJ. […]

[3] = test system: pristane-induced SLE in Balb/c mice; experiment: Pristane-induced systemic lupus erythematosus (SLE) model in Balb/c mice; assay type: in vivo, mouse; conditions: 3, 10, 30 mg/kg IP QD
Method: Receive and quarantine (SOP 560) 70 female Balb/C (20-25 g) mice and house in filter-topped cages supplied with autoclaved bedding.
The animals are weighed, ear tagged for individual identification and randomly assigned to 8 treatment groups of 8 animals each and two groups of 3 animals (for pre-tolerance at 30 mg/kg of survival).
The test items compounds clobenpropit (CB) and IT1t are stored at 4° C.
Mouse weights are recorded twice a week, and daily observations for clinical signs.
Collected sera are stored at −80° C. for measurements of autoantibody on weeks 4, 8 and 10. (Predose will kept at −80° C. for potential use). Anti-dsDNA level is a standard screening readout for identifying efficacy of test compounds in a SLE model.
Measurements: weeks 4, 8, 10: (1) autoantibody (anti-dsDNA), collagen and cytokines TNFα, IL-6 and TRAIL by ELISA and (2) ANA antibody by IFA.

[4] = test system: HIV-stimulated pDC; experiment: TRAIL relocalization to the membrane of HIV-stimulated pDC (3D microscopy); assay type: cell-based, human
Method: Cells were then incubated with anti-CXCR4 antibody (Biolegend, San Diego, Calif.) in saturation buffer PBS-BSA 0.5% for membrane staining or in permeabilizing buffer containing 1% saponin with monoclonal antibody anti-TRAIL (Biolegend, San Diego, Calif., USA). […] Nucleus was stained using DAPI (Molecular Probes, Paisley, UK). Slides were mounted with Fluoromount-G (eBioscience, CA, USA) and scanned with a Nikon Eclipse 90i Upright microscope (Nikon Instruments Europe, Badhoevedorp, The Netherlands) using a 100× Plan Apo VC piezo objective (NA 1.4) and Chroma bloc filters (ET-DAPI, ET-GFP) and were subsequently deconvoluted with a Meinel algorithm and 8 iterations and analyzed using Metamorph® (MDS Analytical Technologies, Winnersh, UK). TRAIL/DAPI/Overlay/Confocal plane: Representative 2D focal plan. Overlay with bright: Bright. Reconvolution overlays: 2D projections of the maximum intensity pixels along the Z-axis.
7 pictures were taken from each slide for each Z section framing the nucleus. Quantification of the colocalization in the cytoplasm of purified pDC using Mander's Coefficient was obtained after analyze by JACoP pluging in ImageJ.

[5] = biological target: H4R (Homo sapiens, UniProt Q9H3N8); assay type: cell-based
H4R, sequence (Q9H3N8 whole entry): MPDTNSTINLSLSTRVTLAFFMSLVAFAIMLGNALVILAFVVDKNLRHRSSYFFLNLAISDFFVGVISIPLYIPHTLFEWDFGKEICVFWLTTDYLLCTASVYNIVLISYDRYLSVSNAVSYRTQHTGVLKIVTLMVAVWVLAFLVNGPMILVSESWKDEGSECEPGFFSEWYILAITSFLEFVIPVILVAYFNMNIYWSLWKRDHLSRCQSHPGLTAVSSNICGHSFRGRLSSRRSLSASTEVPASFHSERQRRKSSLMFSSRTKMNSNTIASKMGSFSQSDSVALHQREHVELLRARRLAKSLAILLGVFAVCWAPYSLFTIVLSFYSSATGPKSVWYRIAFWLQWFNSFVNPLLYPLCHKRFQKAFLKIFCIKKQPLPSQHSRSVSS

[6] = test system: NK cells activated by K562 cells; experiment: IFN-γ, TNF-α and CD107a expression by NK cells activated by K562 cells (flow cytometry); assay type: cell-based; conditions: treated 1 hour, then activated by K562 cells
[7] = biological target: T1, CXCR4; conditions: Jurkat cells, 1 mM, 4° C. for 30 min
[8] = in vitro

T1 sequence (P61073 whole entry): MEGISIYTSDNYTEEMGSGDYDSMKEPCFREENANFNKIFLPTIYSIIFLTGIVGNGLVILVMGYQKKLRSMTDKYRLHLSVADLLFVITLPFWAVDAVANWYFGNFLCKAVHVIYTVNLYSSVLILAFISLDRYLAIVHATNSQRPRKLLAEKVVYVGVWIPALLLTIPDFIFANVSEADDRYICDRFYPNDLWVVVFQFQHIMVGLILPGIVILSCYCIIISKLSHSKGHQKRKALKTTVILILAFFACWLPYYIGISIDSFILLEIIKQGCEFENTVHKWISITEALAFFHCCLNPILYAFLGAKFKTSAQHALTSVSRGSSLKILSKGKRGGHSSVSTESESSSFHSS

With NC(=NCc1ccc(Cl)cc1)SCCCc1cnc[nH]1 [Clobenpropit, clobenpropit] the “effect of CXCR4 silencing on the inhibitory effect” value ([1]; pDC activated by a CCR5-tropic (R5) HIV-1 and Flu) was “blocked”, the “effect of CXCR4 gene silencing on the inhibitory effect on type I IFN and TRAIL” value ([1]; pDC stimulated by CXCR4-tropic HIV-1) was “suppressed” and the “intracellular / extracellular CXCR4 in pDC” value [2] was “most of CXCR4 was detected intracellularly”. For the same compound, the “symptoms of pristane-Induced Systemic Lupus Erythematosus” value [3] was “reduce symptoms”, the “body weight during the study” value ([3]; compared to dose started date) was “no loss of body weight” and the ds-DNA level ([3]; compared to group 1 (vehicle)) was “inhibition”. For the same compound, the “TRAIL localization to the cell membrane in HIV-stimulated pDC” value [4] was “significantly inhibited”, the “effect of H4R knock down on inhibitory activity on IFN-α, IFN-β and TRAIL productions by HIV-stimulated pDC” value [5] was “did not block” and the “IFN-γ, TNF-α and CD107a expression by NK cells” value [6] was “decrease”. For the same compound, the “binding of the CXCR4 antibody 12G5 on T cells” value [7] was “inhibited” and the CC50 [8] was 417 ± 6 µM.
